Experimental data taken from patent publication US9133158B2, “Bicyclic dihydroisoquinoline-1-one derivatives” (Hoffmann-La Roche Inc., priority 2011, dated 2015).

Columns and labels:
[1] = target: T1, human CYP11B2 (Homo sapiens, UniProt P19099); assay: G-402 cellular enzyme assay, human CYP11B2 (aldosterone release, HTRF); type: cell-based; settings: G-402 cells, 1 μM Deoxycorticosterone
T1 construct: expressed in transfected cells
T1 sequence (P19099 25-503): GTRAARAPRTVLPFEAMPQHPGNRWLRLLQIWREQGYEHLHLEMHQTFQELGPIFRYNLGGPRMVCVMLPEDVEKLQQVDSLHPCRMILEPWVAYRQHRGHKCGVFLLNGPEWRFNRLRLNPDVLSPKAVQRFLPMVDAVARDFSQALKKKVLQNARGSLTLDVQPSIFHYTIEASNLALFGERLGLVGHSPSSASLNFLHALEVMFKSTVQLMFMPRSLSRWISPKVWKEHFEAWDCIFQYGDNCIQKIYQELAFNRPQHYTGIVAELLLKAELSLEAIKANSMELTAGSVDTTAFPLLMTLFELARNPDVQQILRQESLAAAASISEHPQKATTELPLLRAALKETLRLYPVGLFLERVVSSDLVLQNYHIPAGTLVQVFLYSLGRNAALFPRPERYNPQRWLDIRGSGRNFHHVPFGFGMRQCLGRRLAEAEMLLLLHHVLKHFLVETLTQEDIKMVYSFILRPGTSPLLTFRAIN
Outline: (§1)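 Steroid output from supernatants, quantified by HTRF as cortisol for CYP11B1 or aldosterone for CYP11B2, gave EC50 values by least-squares 4-parameter MMF fitting against inhibitor concentration. Stably transfected G-402 cells carrying the human enzyme received 1 μM deoxycortisol or 1 μM deoxycorticosterone respectively, 16 h, DMEM/F12 with 2.5% charcoal-stripped FCS.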

[2] = target: T2, human CYP11B1 (Homo sapiens, UniProt P15538); assay: G-402 cellular enzyme assay, human CYP11B1 (cortisol release, HTRF); type: cell-based; settings: G-402 cells, 1 μM Deoxycortisol
T2 construct: expressed in transfected cells
T2 sequence (P15538 25-503): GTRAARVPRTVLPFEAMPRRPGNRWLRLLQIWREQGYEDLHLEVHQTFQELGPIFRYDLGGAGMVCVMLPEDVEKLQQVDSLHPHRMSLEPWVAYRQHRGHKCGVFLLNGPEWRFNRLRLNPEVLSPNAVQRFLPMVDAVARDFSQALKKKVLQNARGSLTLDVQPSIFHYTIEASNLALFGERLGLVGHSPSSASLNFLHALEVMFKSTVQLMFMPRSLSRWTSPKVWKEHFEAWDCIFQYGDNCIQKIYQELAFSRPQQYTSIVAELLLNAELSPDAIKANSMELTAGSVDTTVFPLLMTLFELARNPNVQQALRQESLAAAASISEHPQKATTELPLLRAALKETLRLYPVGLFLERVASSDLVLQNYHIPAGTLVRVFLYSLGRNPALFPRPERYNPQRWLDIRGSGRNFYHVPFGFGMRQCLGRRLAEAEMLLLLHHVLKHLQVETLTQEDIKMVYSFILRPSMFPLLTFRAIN
Outline: as §1

Compound	EC50 [1] [nM]	EC50 [2] [nM]
CCS(=O)(=O)Nc1cncc(N2CCc3cc(Cl)ccc3C2=O)c1 [Example 218, Ethanesulfonic acid [5-(6-chloro-1-oxo-3,4-dihydro-1H-isoquinolin-2-yl)-pyridin-3-yl]-amide]	1550	14300
O=C1c2ccc(Cl)cc2CCN1c1cncc(NS(=O)(=O)C2CC2)c1 [Example 221, Cyclopropanesulfonic acid [5-(6-chloro-1-oxo-3,4-dihydro-1H-isoquinolin-2-yl)-pyridin-3-yl]-amide]	2160	10100
O=C1c2ccc(Cl)cc2CCN1c1cncc(N2CCOCC2)c1 [Example 224, 6-Chloro-2-(5-morpholin-4-yl-pyridin-3-yl)-3,4-dihydro-2H-isoquinolin-1-one]	37.2	293
Cn1cnc(CNc2cncc(N3CCc4cc(Cl)ccc4C3=O)c2)c1 [Example 228, 6-Chloro-2-{5-[(1-methyl-1H-imidazol-4-ylmethyl)-amino]-pyridin-3-yl}-3,4-dihydro-2H-isoquinolin-1-one]	263	12400
O=C1c2ccc(Cl)cc2CCN1c1cncc(-c2cn[nH]c2)c1 [Example 229, 6-Chloro-2-[5-(1H-pyrazol-4-yl)-pyridin-3-yl]-3,4-dihydro-2H-isoquinolin-1-one]	204	745
O=C1c2ccc(Cl)cc2CCN1c1cncc(-c2cccc(F)c2)c1 [Example 231, 6-Chloro-2-[5-(3-fluoro-phenyl)-pyridin-3-yl]-3,4-dihydro-2H-isoquinolin-1-one]	23.3	469
O=C1c2ccc(Cl)cc2CCN1c1cncc(-c2ccc(F)c(F)c2)c1 [Example 232, 6-Chloro-2-[5-(3,4-difluoro-phenyl)-pyridin-3-yl]-3,4-dihydro-2H-isoquinolin-1-one]	26.6	1350
O=C1c2ccc(Cl)cc2CCN1c1cncc(-c2cc(F)cc(F)c2)c1 [Example 233, 6-Chloro-2-[5-(3,5-difluoro-phenyl)-pyridin-3-yl]-3,4-dihydro-2H-isoquinolin-1-one]	271	21600
O=C1c2ccc(Cl)cc2CCN1c1cncc(-c2cccc(Cl)c2)c1 [Example 234, 6-Chloro-2-[5-(3-chloro-phenyl)-pyridin-3-yl]-3,4-dihydro-2H-isoquinolin-1-one]	44.5	1580
O=C1c2ccc(Cl)cc2CCN1c1cncc(-c2cc(F)ccc2F)c1 [Example 235, 6-Chloro-2-[5-(2,5-difluoro-phenyl)-pyridin-3-yl]-3,4-dihydro-2H-isoquinolin-1-one]	22.7	221

The remaining compounds from weak to strong by EC50 [1], led by results:

EC50 [1] [nM]	EC50 [2] [nM]	Compound
2220	17600	O=C1c2ccc(Cl)cc2CCN1c1cncc(NS(=O)(=O)c2ccccc2)c1 [Example 219, N-[5-(6-Chloro-1-oxo-3,4-dihydro-1H-isoquinolin-2-yl)-pyridin-3-yl]-benzenesulfonamide]
116	1420	O=C1c2ccc(Cl)cc2CCN1c1cncc(NCC(F)(F)F)c1 [Example 223, 6-Chloro-2-[5-(2,2,2-trifluoro-ethylamino)-pyridin-3-yl]-3,4-dihydro-2H-isoquinolin-1-one]
80.3	343	O=C1c2ccc(Cl)cc2CCN1c1cncc(NCc2ccc(F)cc2)c1 [Example 222, 6-Chloro-2-[5-(4-fluoro-benzylamino)-pyridin-3-yl]-3,4-dihydro-2H-isoquinolin-1-one]
53.4	3400	Cn1nccc1CNc1cncc(N2CCc3cc(Cl)ccc3C2=O)c1 [Example 226, 6-Chloro-2-{5-[(2-methyl-2H-pyrazol-3-ylmethyl)-amino]-pyridin-3-yl}-3,4-dihydro-2H-isoquinolin-1-one]
7	149	Cc1noc(C)c1-c1cncc(N2CCc3cc(Cl)ccc3C2=O)c1 [Example 230, 6-Chloro-2-[5-(3,5-dimethyl-isoxazol-4-yl)-pyridin-3-yl]-3,4-dihydro-2H-isoquinolin-1-one]
